Measurements from ChEMBL document CHEMBL1201861, “Genomics of Drug Sensitity in Cancer screening data, Wellcome Trust Sanger Institute”.

Legend:
Assay in all cases: cells
[1] = tested on: COLO-741; assay type: functional, cell-based, Homo sapiens; conditions: Homo sapiens, COLO-741
Description: SANGER: Inhibition of human COLO-741 cell growth in a cell viability assay.

[2] = tested on: CTB-1; assay type: functional, cell-based; conditions: Homo sapiens
Description: SANGER: Inhibition of human CTB-1 cell growth in a cell viability assay.

[3] = tested on: CaR-1; assay type: functional, cell-based, Homo sapiens; conditions: Homo sapiens, CaR-1;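 also: growth inhibition of human CaR-1 cancer cells, read out with a cell viability assay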
Description: SANGER: Inhibition of human CaR-1 cell growth in a cell viability assay.

[4] = tested on: EFM-19; assay type: functional, cell-based, Homo sapiens; conditions: Homo sapiens, EFM-19;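 also: growth inhibition of human EFM-19 cells, measured in a cell viability assay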
Description: SANGER: Inhibition of human EFM-19 cell growth in a cell viability assay.

[5] = tested on: EGI-1; assay type: functional, cell-based, Homo sapiens; conditions: Homo sapiens, EGI-1;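 also: cell viability readout used to gauge growth inhibition of EGI-1 cells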
Description: SANGER: Inhibition of human EGI-1 cell growth in a cell viability assay.

[6] = tested on: ES5; assay type: functional, cell-based, Homo sapiens; conditions: Homo sapiens, ES5;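 also: growth inhibition of human ES5 cells, read out by a cell viability assay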
[7] = tested on: HCE-T; assay type: functional, cell-based, Homo sapiens; conditions: Homo sapiens, HCE-T;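 also: cell viability assay read-out, reporting inhibition of HCE-T cell growth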
Description: SANGER: Inhibition of human HCE-T cell growth in a cell viability assay.

[8] = tested on: HDLM-2; assay type: functional, cell-based; conditions: Homo sapiens;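 also: cell viability assay measuring suppression of HDLM-2 proliferation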
Description: SANGER: Inhibition of human HDLM-2 cell growth in a cell viability assay.

[9] = tested on: HEC-1; assay type: functional, cell-based, Homo sapiens; conditions: Homo sapiens, HEC-1;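 also: growth inhibition of the cell line, read out with a cell viability assay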
Description: SANGER: Inhibition of human HEC-1 cell growth in a cell viability assay.

[10] = tested on: Huh-7; assay type: functional, cell-based, Homo sapiens; conditions: Homo sapiens, Huh-7;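 also: HuH-7 cell growth inhibition, read out with a cell viability assay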
Description: SANGER: Inhibition of human HuH-7 cell growth in a cell viability assay.

[11] = tested on: KG-1; assay type: functional, cell-based; conditions: Homo sapiens;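 also: growth inhibition of KG-1 cells, read out by a cell viability assay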
Description: SANGER: Inhibition of human KG-1 cell growth in a cell viability assay.

[12] = tested on: LK-2; assay type: functional, cell-based, Homo sapiens; conditions: Homo sapiens, LK-2;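 also: growth inhibition of LK-2 cells, read out with a viability assay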
Description: SANGER: Inhibition of human LK-2 cell growth in a cell viability assay.

[13] = tested on: LS-513; assay type: functional, cell-based, Homo sapiens; conditions: Homo sapiens, LS-513
Description: SANGER: Inhibition of human LS-513 cell growth in a cell viability assay.

[14] = tested on: Lu-65; assay type: functional, cell-based; conditions: Homo sapiens;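 also: growth inhibition of Lu-65 cancer cells, read out by a cell viability assay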
Description: SANGER: Inhibition of human LU-65 cell growth in a cell viability assay.

[15] = tested on: M14; assay type: functional, cell-based, Homo sapiens; conditions: Homo sapiens, M14;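 also: growth inhibition of M14 cells, read out with a cell viability assay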
Description: SANGER: Inhibition of human M14 cell growth in a cell viability assay.

[16] = tested on: MC116; assay type: functional, cell-based; conditions: Homo sapiens;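 also: growth inhibition of MC116 cells, read out with a cell viability assay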
Description: SANGER: Inhibition of human MC116 cell growth in a cell viability assay.

[17] = tested on: MHH-PREB-1; assay type: functional, cell-based; conditions: Homo sapiens;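 also: cell viability assay measuring inhibition of proliferation of human MHH-PREB-1 cells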
Description: SANGER: Inhibition of human MHH-PREB-1 cell growth in a cell viability assay.

[18] = tested on: MKN-1; assay type: functional, cell-based, Homo sapiens; conditions: Homo sapiens, MKN-1;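 also: growth inhibition of human MKN1 cells, read out by a cell viability measurement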
Description: SANGER: Inhibition of human MKN1 cell growth in a cell viability assay.

[19] = tested on: NCI-H1693; assay type: functional, cell-based, Homo sapiens; conditions: Homo sapiens, NCI-H1693;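 also: growth inhibition of the human cell line, read out with a cell viability assay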
Description: SANGER: Inhibition of human NCI-H1693 cell growth in a cell viability assay.

[20] = tested on: NCI-H1838; assay type: functional, cell-based, Homo sapiens; conditions: Homo sapiens, NCI-H1838;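 also: growth inhibition of NCI-H1838 cells, determined with a cell viability readout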
Description: SANGER: Inhibition of human NCI-H1838 cell growth in a cell viability assay.

[21] = tested on: NCI-H2342; assay type: functional, cell-based; conditions: Homo sapiens;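 also: growth inhibition of the cancer cell line, determined with a cell viability assay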
Description: SANGER: Inhibition of human NCI-H2342 cell growth in a cell viability assay.

[22] = tested on: NCI-H28; assay type: functional, cell-based, Homo sapiens; conditions: Homo sapiens, NCI-H28;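 also: growth inhibition of human NCI-H28 cells, read out as cell viability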
Description: SANGER: Inhibition of human NCI-H28 cell growth in a cell viability assay.

[23] = tested on: NCI-H510A; assay type: functional, cell-based; conditions: Homo sapiens;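 also: growth inhibition of NCI-H510A cells, read out with a cell viability assay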
[24] = tested on: NCI-H520; assay type: functional, cell-based, Homo sapiens; conditions: Homo sapiens, NCI-H520;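 also: growth inhibition of NCI-H520 cells, measured by a cell viability assay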
Description: SANGER: Inhibition of human NCI-H520 cell growth in a cell viability assay.

[25] = tested on: NCI-H650; assay type: functional, cell-based, Homo sapiens; conditions: Homo sapiens, NCI-H650;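 also: growth inhibition of NCI-H650 cells, read out by a viability assay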
Description: SANGER: Inhibition of human NCI-H650 cell growth in a cell viability assay.

[26] = tested on: NCI-H747; assay type: functional, cell-based; conditions: Homo sapiens;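 also: growth inhibition of human NCI-H747 cells, read out by a cell viability assay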
[27] = tested on: NCI-N87; assay type: functional, cell-based, Homo sapiens; conditions: Homo sapiens, NCI-N87;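 also: growth inhibition of human NCI-N87 cells, read out with a cell viability assay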
Description: SANGER: Inhibition of human NCI-N87 cell growth in a cell viability assay.

[28] = tested on: NKM-1; assay type: functional, cell-based; conditions: Homo sapiens;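 also: growth inhibition of NKM-1 cells, read out with a cell viability assay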
[29] = tested on: NTERA-2-cl-D1; assay type: functional, cell-based, Homo sapiens; conditions: Homo sapiens, NTERA-2-cl-D1;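 also: inhibition of cell growth, measured with a cell viability assay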
Description: SANGER: Inhibition of human NTERA-S-cl-D1 cell growth in a cell viability assay.

[30] = tested on: RCC10RGB; assay type: functional, cell-based, Homo sapiens; conditions: Homo sapiens, RCC10RGB;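 also: growth inhibition of human RCC10RGB cells, read out by a cell viability assay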
Description: SANGER: Inhibition of human RCC10RGB cell growth in a cell viability assay.

[31] = tested on: RKO; assay type: functional, cell-based, Homo sapiens; conditions: Homo sapiens, RKO;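 also: growth inhibition of human RKO cells, read out with a cell viability assay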
Description: SANGER: Inhibition of human RKO cell growth in a cell viability assay.

[32] = tested on: RVH-421; assay type: functional, cell-based, Homo sapiens; conditions: Homo sapiens, RVH-421
Description: SANGER: Inhibition of human RVH-421 cell growth in a cell viability assay.

[33] = tested on: RXF 393; assay type: functional, cell-based; conditions: Homo sapiens;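 also: growth inhibition of human RXF 393 cells, read out with a cell viability assay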
[34] = tested on: SCC-4; assay type: functional, cell-based, Homo sapiens; conditions: Homo sapiens, SCC-4;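 also: growth inhibition of human SCC-4 cells, read out as cell viability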
Description: SANGER: Inhibition of human SCC-4 cell growth in a cell viability assay.

[35] = tested on: SCC-9; assay type: functional, cell-based, Homo sapiens; conditions: Homo sapiens, SCC-9;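 also: Read-out is a cell viability assay, with values giving inhibition of cell growth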
Description: SANGER: Inhibition of human SCC-9 cell growth in a cell viability assay.

[36] = tested on: SHP77; assay type: functional, cell-based, Homo sapiens, SHP-77; conditions: Homo sapiens, SHP77;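 also: growth inhibition of human SHP-77 cells measured by a cell viability assay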
Description: SANGER: Inhibition of human SHP-77 cell growth in a cell viability assay.

[37] = tested on: SW13; assay type: functional, cell-based, Homo sapiens; conditions: Homo sapiens, SW13;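 also: IC50 is inhibition of SW13 cell growth, read out with a cell viability assay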
Description: SANGER: Inhibition of human SW13 cell growth in a cell viability assay.

[38] = tested on: SW1463; assay type: functional, cell-based, Homo sapiens; conditions: Homo sapiens, SW1463;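 also: growth inhibition of SW1463 cells, determined with a cell viability assay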
Description: SANGER: Inhibition of human SW1463 cell growth in a cell viability assay.

[39] = tested on: SW1710; assay type: functional, cell-based, Homo sapiens; conditions: Homo sapiens, SW1710;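 also: growth inhibition of SW1710 cells, determined with a cell viability assay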
Description: SANGER: Inhibition of human SW1710 cell growth in a cell viability assay.

[40] = tested on: SW48; assay type: functional, cell-based, Homo sapiens; conditions: Homo sapiens, SW48;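 also: growth inhibition of SW48 cells, read out with a cell viability assay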
Description: SANGER: Inhibition of human SW48 cell growth in a cell viability assay.

[41] = tested on: SAOS-2; assay type: functional, cell-based, Homo sapiens; conditions: Homo sapiens, SAOS-2;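 also: growth inhibition of human Saos-2 cells determined by a cell viability assay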
Description: SANGER: Inhibition of human Saos-2 cell growth in a cell viability assay.

[42] = tested on: 8305C; assay type: functional, cell-based, Homo sapiens; conditions: Homo sapiens, 8305C
Description: SANGER: Inhibition of human 8305C cell growth in a cell viability assay.

[43] = tested on: A101D; assay type: functional, cell-based, Homo sapiens; conditions: Homo sapiens, A101D;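 also: growth inhibition of the cell line, measured with a viability assay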
Description: SANGER: Inhibition of human A101D cell growth in a cell viability assay.

[44] = tested on: AGS; assay type: functional, cell-based, Homo sapiens; conditions: Homo sapiens, AGS;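 also: growth inhibition of AGS cells, determined with a cell viability assay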
Description: SANGER: Inhibition of human AGS cell growth in a cell viability assay.

[45] = tested on: BT-20; assay type: functional, cell-based, Homo sapiens; conditions: Homo sapiens, BT-20;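 also: cell viability assay measuring suppression of growth in human BT-20 cells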
Description: SANGER: Inhibition of human BT-20 cell growth in a cell viability assay.

[46] = tested on: CAL-27; assay type: functional, cell-based, Homo sapiens; conditions: Homo sapiens, CAL-27;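 also: Viability-based readout, IC50 reflecting inhibition of CAL-27 cell growth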
Description: SANGER: Inhibition of human CAL-27 cell growth in a cell viability assay.

[47] = tested on: U-266; assay type: functional, cell-based; conditions: Homo sapiens
Description: SANGER: Inhibition of human U-266 cell growth in a cell viability assay.

[48] = tested on: U-87 MG; assay type: functional, cell-based, U-87MG ATCC; conditions: Homo sapiens;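 also: growth inhibition of the cells measured with a viability assay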
Description: SANGER: Inhibition of human U-87-MG cell growth in a cell viability assay.

[49] = tested on: no-10; assay type: functional, cell-based, Homo sapiens; conditions: Homo sapiens;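 also: growth inhibition of no-10 cells, read out with a cell viability assay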
Description: SANGER: Inhibition of human no-10 cell growth in a cell viability assay.

[50] = tested on: no-11; assay type: functional, cell-based, Homo sapiens; conditions: Homo sapiens;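 also: growth inhibition of human NO-11 cells, read out with a cell viability assay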
Description: SANGER: Inhibition of human no-11 cell growth in a cell viability assay.

[51] = tested on: CAMA-1; assay type: functional, cell-based, Homo sapiens; conditions: Homo sapiens, CAMA-1;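 also: growth inhibition of CAMA-1 cells, read out with a cell viability assay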
Description: SANGER: Inhibition of human CAMA-1 cell growth in a cell viability assay.

[52] = tested on: CGTH-W-1; assay type: functional, cell-based, Homo sapiens; conditions: Homo sapiens, CGTH-W-1;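 also: growth inhibition of human CGTH-W-1 cells measured by cell viability assay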
Description: SANGER: Inhibition of human CGTH-W-1 cell growth in a cell viability assay.

With `CN(C)C/C=C/C(=O)Nc1cc2c(Nc3ccc(F)c(Cl)c3)ncnc2cc1O[C@H]1CCOC1` [AFATINIB] the IC50 [1] was > 500 nM, the IC50 [2] was > 500 nM and the IC50 [3] was > 500 nM. For the same compound, the IC50 [4] was > 500 nM, the IC50 [5] was > 500 nM and the IC50 [6] was > 500 nM. The IC50 [7] was > 500 nM, the IC50 [8] was 5.72 nM and the IC50 [9] was > 500 nM. The IC50 [10] was > 500 nM, the IC50 [11] was > 500 nM and the IC50 [12] was > 500 nM. For the same compound, the IC50 [13] was > 500 nM, the IC50 [14] was 126 nM and the IC50 [15] was > 500 nM. The IC50 [16] was > 500 nM, the IC50 [17] was > 500 nM and the IC50 [18] was > 500 nM. The IC50 [19] was > 500 nM, the IC50 [20] was > 500 nM and the IC50 [21] was > 500 nM. For the same compound, the IC50 [22] was > 500 nM, the IC50 [23] was > 500 nM and the IC50 [24] was > 500 nM. The IC50 [25] was > 500 nM, the IC50 [26] was > 500 nM and the IC50 [27] was 27.7 nM. For the same compound, the IC50 [28] was > 500 nM, the IC50 [29] was > 500 nM and the IC50 [30] was > 500 nM. The IC50 [31] was > 500 nM, the IC50 [32] was > 500 nM and the IC50 [33] was > 500 nM. The IC50 [34] was > 500 nM, the IC50 [35] was > 500 nM and the IC50 [36] was > 500 nM. The IC50 [37] was 162 nM, the IC50 [38] was > 500 nM and the IC50 [39] was > 500 nM. The IC50 [40] was > 500 nM, the IC50 [41] was > 500 nM and the IC50 [42] was > 500 nM. For the same compound, the IC50 [43] was > 500 nM, the IC50 [44] was > 500 nM and the IC50 [45] was > 500 nM. The IC50 [46] was 176 nM, the IC50 [47] was > 500 nM and the IC50 [48] was > 500 nM. For the same compound, the IC50 [49] was > 500 nM, the IC50 [50] was > 500 nM and the IC50 [51] was > 500 nM. The IC50 [52] was > 500 nM.
